Columns and labels:
[1] = test system: Escherichia coli, reference ATCC 8739; test: Preservative Efficacy Test (PET), Escherichia coli; type: cell-based; parameters: key to Gram− bacterium, Esoherichia coli: −: No European pharmacopoeia criterion or USP criterion is met; +: for the coli: the USP criteria are met; ++: the European pharmacopoeia criteria A are met; settings: additive in standard emulsion
Excerpt: (§1) A particular problem that must be solved by the invention is that of effectively protecting a pharmaceutical topical composition while at the same time meeting the criteria required by the European and U.S. pharmacopoeias. This is because, since the purpose of the pharmaceutical composition is to become a pharmaceutical product with a marketing authorization, it is imperative for the composition according to the invention to meet these criteria. In order to verify this point and to determine the antimicrobial action of the various mixtures of excipients according to the invention, a test protocol, known as the PET (Preservative Efficacy Test), exists. The PET comprises artificially inoculating the compositions with a known number of microorganisms, and then determining the decrease in the latter in the compositions tested, at given times. The protocol of this test is set up in order to abide by the recommendations of the European and U.S. pharmacopoeias. […] The mixture of excipients as preservatives, described herein, should therefore meet the criteria of these pharmacopoeias in the PET. This test comprises artificially contaminating aliquots of formulation by means of a calibrated inoculum of specific microorganisms and incubating the same at precise temperatures. Samples are taken from the contaminated aliquots at given time intervals in order to count the microorganisms. Bacteria: • Escherichia coli, reference ATCC 8739. • Pseudomonas aeruginosa, reference ATCC 9027. • Staphylococcus aureus, reference ATCC 6538.

[2] = test system: Bacteria and fungi (Escherichia coli, Pseudomonas aeruginosa, Staphylococcus aureus, Candida albicans, Aspergillus niger); test: PET, overall compliance with European and U.S. pharmacopoeia criteria; type: cell-based; settings: additive in standard emulsion
Excerpt: A particular problem that must be solved by the invention is that of effectively protecting a pharmaceutical topical composition while at the same time meeting the criteria required by the European and U.S. pharmacopoeias. This is because, since the purpose of the pharmaceutical composition is to become a pharmaceutical product with a marketing authorization, it is imperative for the composition according to the invention to meet these criteria. In order to verify this point and to determine the antimicrobial action of the various mixtures of excipients according to the invention, a test protocol, known as the PET (Preservative Efficacy Test), exists. The PET comprises artificially inoculating the compositions with a known number of microorganisms, and then determining the decrease in the latter in the compositions tested, at given times. The protocol of this test is set up in order to abide by the recommendations of the European and U.S. pharmacopoeias. The test and also the recommendations of the European and U.S. pharmacopoeias are described in Example 1 to follow. The mixture of excipients as preservatives, described herein, should therefore meet the criteria of these pharmacopoeias in the PET.
This test comprises artificially contaminating aliquots of formulation by means of a calibrated inoculum of specific microorganisms and incubating the same at precise temperatures. Samples are taken from the contaminated aliquots at given time intervals in order to count the microorganisms.
It also makes it obligatory to study the reductions in population of the microorganisms introduced into the formulation according to two acceptability criteria.
Since the A criteria are the most strict, it are […] generally required that they be met.
In justified cases, when the A criteria cannot be complied with, for example owing to an increase in the risk of adverse reactions, the B criteria, which are less drastic, apply.
NI (Non-Increase) signifies that there must not be an increase in the number of microorganisms.
It imposes logarithmic reductions in the population of microorganisms which are different than that of the European pharmacopoeia.

[3] = test system: Staphylococcus aureus, reference ATCC 6538; test: Preservative Efficacy Test (PET), Staphylococcus aureus; type: cell-based; parameters: key to Gram+ bacterium, Staphylococcus aureus: −: No European pharmacopoeia criterion or USP criterion is met; +: for the coli: the USP criteria are met; ++: the European pharmacopoeia criteria A are met; settings: additive in standard emulsion
Excerpt: as §1, with “Bacteria: • Pseudomonas aeruginosa, reference ATCC 9027; NCIMB 8626; CIP 82.118. • Staphylococcus aureus, reference ATCC 6538; NCTC 10788; NCIMB 9518; CIP 4.83. Bacteria: • Escherichia coli,” for “Bacteria: • Escherichia coli,”

[4] = pH of the emulsion containing the additive; type: physicochemical; settings: standard emulsion with 2% citric acid
[5] = test system: Aspergillus niger, reference ATCC 16404; test: Preservative Efficacy Test (PET), Aspergillus niger; type: cell-based; parameters: key to Moulds, Aspergillus Niger: −: No European pharmacopoeia criterion or USP criterion is met; +: for the coli: the USP criteria are met; ++: the European pharmacopoeia criteria A are met; settings: additive in standard emulsion at its given % (EDTA 0.15, citric acid 2, sodium ascorbate 2, tocopherol 0.05, BHT 1, propyl gallate 0.1, ascorbyl palmitate 1)
Excerpt: (§2) A particular problem that must be solved by the invention is that of effectively protecting a pharmaceutical topical composition while at the same time meeting the criteria required by the European and U.S. pharmacopoeias. This is because, since the purpose of the pharmaceutical composition is to become a pharmaceutical product with a marketing authorization, it is imperative for the composition according to the invention to meet these criteria. In order to verify this point and to determine the antimicrobial action of the various mixtures of excipients according to the invention, a test protocol, known as the PET (Preservative Efficacy Test), exists. The PET comprises artificially inoculating the compositions with a known number of microorganisms, and then determining the decrease in the latter in the compositions tested, at given times. The protocol of this test is set up in order to abide by the recommendations of the European and U.S. pharmacopoeias. […] The mixture of excipients as preservatives, described herein, should therefore meet the criteria of these pharmacopoeias in the PET. This test comprises artificially contaminating aliquots of formulation by means of a calibrated inoculum of specific microorganisms and incubating the same at precise temperatures. Samples are taken from the contaminated aliquots at given time intervals in order to count the microorganisms. Fungi: • Candida albicans, reference ATCC 10231; NCPF 3179; IP 48.72. • Aspergillus niger, reference ATCC 16404; IMI 149007; IP 1431.83. Fungi: • Candida albicans, reference ATCC 10231. • Aspergillus niger, reference ATCC 16404.

[6] = test system: Candida albicans, reference ATCC 10231; test: Preservative Efficacy Test (PET), Candida albicans; type: cell-based; parameters: key to Yeast, Candida albicans: −: No European pharmacopoeia criterion or USP criterion is met; +: for the coli: the USP criteria are met; ++: the European pharmacopoeia criteria A are met; settings: additive in standard emulsion
Excerpt: as §2

[7] = test system: Pseudomonas aeruginosa, reference ATCC 9027; test: Preservative Efficacy Test (PET), Pseudomonas aeruginosa; type: cell-based; parameters: key to Gram− bacterium, Pseudomonas aeruginosa: −: No European pharmacopoeia criterion or USP criterion is met; +: for the coli: the USP criteria are met; ++: the European pharmacopoeia criteria A are met; settings: additive in standard emulsion
Excerpt: as §1, with “Bacteria: • Pseudomonas aeruginosa, reference ATCC 9027; NCIMB 8626; CIP 82.118. • Staphylococcus aureus, reference ATCC 6538; NCTC 10788; NCIMB 9518; CIP 4.83. Bacteria: • Escherichia coli,” for “Bacteria: • Escherichia coli,”

In the case of `O=C(O)CC(O)(CC(=O)O)C(=O)O` [Citric acid], the “Gram− bacterium, Esoherichia coli” value [1] is reported as “+”, the “Efficacy on the microorganisms as a whole / spectrum of efficacy” value [2] is reported as “bactericidal” and the “Gram+ bacterium, Staphylococcus aureus” value [3] is reported as “++”. For the same compound, the pH [4] was 2.04, the “Moulds, Aspergillus Niger” value [5] was “−” and the “Action on Candida albicans” value [6] was “inhibits”. For the same compound, the “Yeast, Candida albicans” value [6] was “++” and the “Gram− bacterium, Pseudomonas aeruginosa” value [7] was “++”.

— US8758782B2, “Excipient preservatives and pharmaceutical compositions comprised thereof” (Galderma Research & Development, priority 2007, dated 2014)
